The target in the test is T1, human GPR119 (Homo sapiens, UniProt Q8TDV5).
T1 sequence (Q8TDV5 1-308 limits assumed): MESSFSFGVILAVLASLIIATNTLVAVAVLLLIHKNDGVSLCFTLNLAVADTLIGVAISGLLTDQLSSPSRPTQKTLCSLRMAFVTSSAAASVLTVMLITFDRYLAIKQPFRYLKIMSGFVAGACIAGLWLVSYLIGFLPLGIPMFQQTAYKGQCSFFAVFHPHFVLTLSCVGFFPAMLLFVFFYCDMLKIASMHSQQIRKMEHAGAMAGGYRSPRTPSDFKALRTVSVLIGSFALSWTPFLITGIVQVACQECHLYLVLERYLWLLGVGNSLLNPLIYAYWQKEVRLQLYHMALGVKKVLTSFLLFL
Kind of test: Measurement of GPR119 signaling (cAMP assay; LANCE kit or HTRF) in HEK293 cells stably transfected with human GPR119. The test is classed as cell-based. To be noted: agonist-stimulated cAMP in HEK293 cells expressing human GPR119. Here is the method: Measurement of GPR119 Signaling Using LANCE 384-Well cAMP Kit
The adenylate cyclase assay was constructed following the LANCE™ cAMP Kit (Perkin Elmer, AD0264) instructions. […] The reaction was stopped by incubating with the supplied detection buffer containing the europium chelate of the Eu-SA/Biotin-cAMP tracer for 3 hours. The assay was performed in duplicate in a 384 well plate for duplicate plates. Fluorescence at 665 nm was measured using a PHERAstar instrument. Basal activity was determined using a DMSO control and maximum response was defined as cAMP stimulation produced by an internal agonist control. Standard cAMP concentrations were assayed concurrently for conversion of fluorescence signal to cAMP level. The data was analyzed using 4-parameter curve fit in Microsoft Excel.
Measurement of GPR119 Signaling Using a Cyclic AMP (cAMP) Homogenous Time Resolved Fluorescence (HTRF) Assay
Chinese hamster ovary (CHO) cell lines stably transfected with the permissive guanine nucleotide binding protein alpha 15 (Gα15) and murine GPR119 were maintained in DMEM media containing FBS, penicillin-streptomycin, puromycin, and G418 (geneticin). […] Agonist activation of the GPR119 receptor was measured in receptor transfected cells described above, treated with compounds of this invention, using a commercial homogenous time resolved fluorescence (HTRF) kit for measurement of cAMP (CisBio, Bedford, Mass.). The assay was performed in 96-well half-volume plates (murine) or 384-well plates (human) following the manufacturers instructions. Briefly, suspended cells were incubated with a dose titration of test compound at RT for 60 min, lysed, and incubated with HTRF reagents for an additional 60 min. The plate was read using an Envision multilabel reader (Perkin Elmer) adjusted to read time resolved fluorescence and the cAMP concentrations were extrapolated from a cAMP calibration curve. […] The concentration of test compound required to stimulate a half-maximal response (EC50), and efficacy as compared to an internal agonist control, was determined from a sigmoidal 4-parameter curve fit of the resulting plot of normalized activity versus compound concentration.
(In general: Cyclic AMP is a second messenger, typically raised through Gs and lowered through Gi signalling.)
Broadly, the EC50 is the concentration giving half of the maximal effect. For `COC(C)c1cnc(N2CCC([C@H]3C[C@H]3COCc3ccc(S(C)(=O)=O)cc3F)CC2)nc1` (single isomer, unassigned) [Example 125], the EC50 was determined as 0.36 nM.
For the compound `COC(C)c1cnc(N2CCC([C@H]3C[C@H]3COCc3ccc(S(C)(=O)=O)cc3F)CC2)nc1` (single isomer, unassigned) [Example 126], the midpoint of the response, the EC50, lay at 1.5 nM.
Compound `COC(C)c1cnc(N2CCC([C@H]3C[C@H]3COCc3ccc(S(C)(=O)=O)c(F)c3)CC2)nc1` (single isomer, unassigned) [Example 130] yielded an EC50 of 0.72 nM.
In the case of `COC(C)c1cnc(N2CCC([C@H]3C[C@H]3COCc3ccc(S(C)(=O)=O)c(F)c3)CC2)nc1` (single isomer, unassigned) [Example 131] it was 1.03 nM.
The same measure for `CS(=O)(=O)c1ccc(COC[C@@H]2C[C@@H]2C2CCN(c3ncc(Cl)cn3)CC2)nc1` [Example 1, 5-chloro-2-{4-[(1R,2R)-2-({[5-(methylsulfonyl)pyridin-2-yl]methoxy}methyl)cyclopropyl]piperidin-1-yl}pyrimidine]: 8.7 nM; for `Cc1cnc(N2CCC([C@H]3C[C@H]3COCc3ccc(S(C)(=O)=O)cn3)CC2)nc1` [Example 2, 5-methyl-2-{4-[(1R,2R)-2-({[5-(methylsulfonyl)pyridin-2-yl]methoxy}methyl)cyclopropyl]piperidin-1-yl}pyrimidine]: 10.8 nM.
In the case of `CCc1cnc(N2CCC([C@H]3C[C@H]3COCc3ccc(S(C)(=O)=O)cn3)CC2)nc1` [Example 3, 5-ethyl-2-{4-[(1R,2R)-2-({[5-(methylsulfonyl)pyridin-2-yl]methoxy}methyl)cyclopropyl]piperidin-1-yl}pyrimidine] it was 1.5 nM; in that of `CS(=O)(=O)c1ccc(COC[C@@H]2C[C@@H]2C2CCN(c3ncc(Br)cn3)CC2)nc1` [Example 4, 5-bromo-2-{4-[(1R,2R)-2-({[5-(methylsulfonyl)pyridin-2-yl]methoxy}methyl)cyclopropyl]piperidin-1-yl}pyrimidine], 1 nM; in that of `CS(=O)(=O)c1ccc(COC[C@@H]2C[C@@H]2C2CCN(c3ncc(F)cn3)CC2)nc1` [Example 5, 5-fluoro-2-{4-[(1R,2R)-2-({[5-(methylsulfonyl)pyridin-2-yl]methoxy}methyl)cyclopropyl]piperidin-1-yl}pyrimidine], 21 nM.
For `COc1cnc(N2CCC([C@H]3C[C@H]3COCc3ccc(S(C)(=O)=O)cn3)CC2)nc1` [Example 6, 5-methoxy-2-{4-[(1R,2R)-2-({[5-(methylsulfonyl)pyridin-2-yl]methoxy}methyl)cyclopropyl]piperidin-1-yl}pyrimidine], a half-maximal effect (EC50) was put at 15 nM.
`CS(=O)(=O)c1ccc(COC[C@@H]2C[C@@H]2C2CCN(c3ncc(-c4cn[nH]c4)cn3)CC2)nc1` [Example 7] gave an EC50 of 15.6 nM.
`CCCOC(=O)N1CCC([C@H]2C[C@H]2COCc2ccc(S(C)(=O)=O)cc2)CC1` [Example 8, propyl 4-[(1R,2R)-2-({[4-(methylsulfonyl)benzyl]oxy}methyl)cyclopropyl]piperidine-1-carboxylate] gave an EC50 of 16 nM.
In the case of `CC(C)OC(=O)N1CCC([C@H]2C[C@H]2COCc2ccc(S(C)(=O)=O)cc2)CC1` [Example 9, isopropyl 4-[(1R,2R)-2-({[4-(methylsulfonyl)benzyl]oxy}methyl)cyclopropyl]piperidine-1-carboxylate] it was 16 nM; in that of `CC(C)COC(=O)N1CCC([C@H]2C[C@H]2COCc2ccc(S(C)(=O)=O)cc2)CC1` [Example 10, isobutyl 4-[(1R,2R)-2-({[4-(methylsulfonyl)benzyl]oxy}methyl)cyclopropyl]piperidine-1-carboxylate], 8.2 nM; in that of `CC1(OC(=O)N2CCC([C@H]3C[C@H]3COCc3ccc(S(C)(=O)=O)cc3)CC2)CC1` [Example 11, 1-methylcyclopropyl 4-[(1R,2R)-2-({[4-(methylsulfonyl)benzyl]oxy}methyl)cyclopropyl]piperidine-1-carboxylate], 3.9 nM.
For the compound `CS(=O)(=O)c1ccc(COC[C@@H]2C[C@@H]2C2CCN(C(=O)OC3CCC3)CC2)cc1` [Example 12, cyclobutyl 4-[(1R,2R)-2-({[4-(methylsulfonyl)benzyl]oxy}methyl)cyclopropyl]piperidine-1-carboxylate], the EC50 was 8.2 nM.
In the case of `CS(=O)(=O)c1ccc(COC[C@@H]2C[C@@H]2C2CCN(C(=O)OCC3CC3)CC2)cc1` [Example 13, cyclopropylmethyl 4-[(1R,2R)-2-({[4-(methylsulfonyl)benzyl]oxy}methyl)cyclopropyl]piperidine-1-carboxylate] it was 3.2 nM.
The same measure for `CS(=O)(=O)c1ccc(COC[C@@H]2C[C@@H]2C2CCN(c3ncc(Cl)cn3)CC2)cc1` [Example 14, 5-chloro-2-{4-[(1R,2R)-2-({[4-(methylsulfonyl)benzyl]oxy}methyl)cyclopropyl]piperidin-1-yl}pyrimidine]: 0.7 nM; for `COc1cnc(N2CCC([C@H]3C[C@H]3COCc3ccc(S(C)(=O)=O)cc3)CC2)nc1` [Example 15, 5-methoxy-2-{4-[(1R,2R)-2-({[4-(methylsulfonyl)benzyl]oxy}methyl)cyclopropyl]piperidin-1-yl}pyrimidine]: 0.4 nM; for `CS(=O)(=O)c1ccc(COC[C@@H]2C[C@@H]2C2CCN(c3ncc(F)cn3)CC2)cc1` [Example 16, 5-fluoro-2-{4-[(1R,2R)-2-({[4-(methylsulfonyl)benzyl]oxy}methyl)cyclopropyl]piperidin-1-yl}pyrimidine]: 5.8 nM.
The same measure for `COC(=O)c1cnc(N2CCC([C@H]3C[C@H]3COCc3ccc(S(C)(=O)=O)cc3)CC2)nc1` [Example 17, methyl 2-{4-[(1R,2R)-2-({[4-(methylsulfonyl)benzyl]oxy}methyl)cyclopropyl]piperidin-1-yl}pyrimidine-5-carboxylate]: 20 nM; for `CS(=O)(=O)c1ccc(COC[C@@H]2C[C@@H]2C2CCN(c3ncc(C4CC4)cn3)CC2)cc1` [Example 18, 5-cyclopropyl-2-{4-[(1R,2R)-2-({[4-(methylsulfonyl)benzyl]oxy}methyl)cyclopropyl]piperidin-1-yl}pyrimidine]: 1 nM.
Turning to `CC(C)Cc1cnc(N2CCC([C@H]3C[C@H]3COCc3ccc(S(C)(=O)=O)cc3)CC2)nc1` [Example 19, 5-isobutyl-2-{4-[(1R,2R)-2-({[4-(methylsulfonyl)benzyl]oxy}methyl)cyclopropyl]piperidin-1-yl}pyrimidine], the midpoint of the response, the EC50, lay at 0.13 nM.
The same measure for `CCc1cnc(N2CCC([C@H]3C[C@H]3COCc3ccc(S(C)(=O)=O)cc3)CC2)nc1` [Example 20, 5-ethyl-2-{4-[(1R,2R)-2-({[4-(methylsulfonyl)benzyl]oxy}methyl)cyclopropyl]piperidin-1-yl}pyrimidine]: 0.74 nM; for `Cc1cnc(N2CCC([C@H]3C[C@H]3COCc3ccc(S(C)(=O)=O)cc3)CC2)nc1` [Example 21, 5-methyl-2-{4-[(1R,2R)-2-({[4-(methylsulfonyl)benzyl]oxy}methyl)cyclopropyl]piperidin-1-yl}pyrimidine]: 1.6 nM.

Source of the values: US9006228B2 (Merck Sharp & Dohme Corp., priority 2011, dated 2015).
